Patent publication US10391103B2, “Ferroporphyrin solid dispersion and preparation method thereof” (Sinotherapeutics Inc., priority 2013, dated 2019)

Experiments:
[1] = Stability test for the solid dispersions (content by HPLC)
[2] = rats; cited from earlier work

Content, stability study 0 day ([1]; open, 25° C. 60% RH): 100.9% | Content, stability study 1 day ([1]; open, 25° C. 60% RH): 98.0% | Content, stability study 3 days ([1]; open, 25° C. 60% RH): 98.7% | Content, stability study 7 days ([1]; open, 25° C. 60% RH): 100.9% | Content, stability study 35 days ([1]; open, 25° C. 60% RH): 98.8% | Content, stability study 0 day ([1]; open, 40° C. 75% RH): 100.9% | Content, stability study 1 day ([1]; open, 40° C. 75% RH): 99.0% | Content, stability study 3 days ([1]; open, 40° C. 75% RH): 99.8% | Content, stability study 7 days ([1]; open, 40° C. 75% RH): 100.8% | Content, stability study 35 days ([1]; open, 40° C. 75% RH): 100.6% | Content, stability study 0 day ([1]; sealed, 25° C. 60% RH): 100.9% | Content, stability study 1 day ([1]; sealed, 25° C. 60% RH): 99.5% | Content, stability study 3 days ([1]; sealed, 25° C. 60% RH): 102.0% | Content, stability study 7 days ([1]; sealed, 25° C. 60% RH): 100.5% | Content, stability study 14 days ([1]; sealed, 25° C. 60% RH): 98.9% | Content, stability study 35 days ([1]; sealed, 25° C. 60% RH): 102.2% | Content, stability study 0 day ([1]; sealed, 40° C. 75% RH): 100.9% | Content, stability study 1 day ([1]; sealed, 40° C. 75% RH): 99.6% | Content, stability study 3 days ([1]; sealed, 40° C. 75% RH): 102.7% | Content, stability study 7 days ([1]; sealed, 40° C. 75% RH): 100.8% | Content, stability study 14 days ([1]; sealed, 40° C. 75% RH): 99.2% | Content, stability study 35 days ([1]; sealed, 40° C. 75% RH): 102.7%
Substance: porphyrin iron [API]
absolute oral bioavailability [2]: 0.93%
